According to patent publication US20090012152A1, “Use of Tetramic Acid Derivatives for Controlling Insects from the Genus of the Plane Lice (Sternorrhyncha)” (Bayer CropScience Aktiengesellschaft, priority 2005, published 2009):

Assays:
Format in all cases: in vivo
Saissetia oleae = assay: Example 13: orange trees treated against Saissetia oleae; conditions: nymphs on leaves, g a.i./ha/m crown height: buprofezin 500, I-4 72, I-8 30
Method: In three replications, in each case two about 8-year-old orange trees are treated against Saissetia oleae. Here, the active compounds Example (I-4) (240 SC) and Example (I-8) (250 SC) in a tank mix with 0.2% a.i. of rapeseed oil methyl ester (500 EW) at the stated application rate are tested against the commercial standard buprofezin in a tank mix with 0.4% a.i. of Oliocin (800 EW) at the stated application rate. The application is carried out using a motor-operated knapsack sprayer. The application rate is 3000 l of water/ha. Two treatments are carried out, at an interval of 29 days.
Evaluation is carried out 24 and 44 days after the last treatment by rating the kill of the nymphs on the leaves.

Aonidiella aurantii = assay: Example 16: grapefruit tree treated against Aonidiella aurantii; conditions: on fruits, per metre crown height: Dursban 6.01 pounds/acre, I-4 72 g/ha
Method: In four replications, an about 10-year-old grapefruit tree of the cultivar “Rio Red” is treated against Aonidiella aurantii. The application is carried out using a motor-operated barrow-mounted sprayer. Here, the active compound Example (I-4) (240 SC) and the commercial standard Dursban (480 EC) are tested at the stated application rates. The amount of spray liquor is 5.8 gallons per tree.
Evaluation is carried out 28, 59 and 90 days after the treatment by rating the kill of the animals on the fruits.

[1] = test system: Pseudaulacaspis pentagons; assay: Example 22: peach trees treated against Pseudaulacaspis pentagons; conditions: crawlers on shoots, g a.i./ha/m crown height: Esteem 98, I-4 120
Method: In ten replications, on about 46 m^2, peach trees are treated against Pseudaulacaspis pentagons. Two applications are carried out at an interval of 57 days using a sprayer operated with pressurized air. Here, the active compound Example (I-4) (240 SC) in a tank mix with 0.2% of Dynamic (910 XL) is applied at the stated application rate and the commercial standard Esteem (35 WP) is applied at the stated application rate. The application rate is 935 l of water/ha.
Evaluation is carried out 35 and 79 days after the last treatment by rating the kill of the crawlers on the shoots.

Planococcus spp. = assay: Example 29: vines treated against Planococcus spp.; conditions: larvae on grapes, rate %/1: Dursban 0.096, I-4 0.0096
Method: In three replications, in plots of a size of 54 m^2, about 10-year-old vines of the cultivar “Napoleon” are treated against Planococcus spp. The application is carried out using a knapsack sprayer. Here, the active compound Example (I-4) (240 SC), in a tank mix with 0.1% a.i. of rapeseed oil methyl ester (500 EW), is tested against the commercial standard Dursban (480 EC), at the stated application rates. The application rate is 864 l of water/ha. Two treatments are carried out, at an interval of 19 days.
Evaluation is carried out 16 and 38 days after the second treatment by rating the kill of the larvae on the grapes.

Bemisia argentifolii = assay: Example 37: cantaloupe melons treated against Bemisia argentifolii; conditions: nymphs on leaves, g a.i./ha: endosulfan 1120, I-4 48
Method: In four replications, plots of a size of about 39 m^2 with cantaloupe melons of the cultivar “Western Shipper” are treated against Bemisia argentifolii. The application is carried out using a knapsack sprayer operated with pressurized air. Here, the active compound Example (I-4) (240 SC), in a tank mix with 0.2 a.i. of rapeseed oil methyl ester (500 EW), and the commercial standard endosulfan (360 EC) are tested at the stated application rates. Two applications are carried out at an interval of 16 days. The application rate is 187 l of water/ha.
Evaluation is carried out 5, 13, 21 and 29 days after the first treatment by rating the kill of the animals (nymphs) on the leaves.

Aleurothrixus floccosus = assay: Example 39: orange trees treated against Aleurothrixus floccosus; conditions: on branches, % a.i.: Juvinal 0.005, I-4 0.0072
Method: In three replications, about 55-year-old orange trees of the cultivar “Amargo” are treated against Aleurothrixus floccosus. The application is carried out using a motor-operated knapsack sprayer. Here, the active compound Example (I-4) (240 SC), in a tank mix with 0.1% a.i. of rapeseed oil methyl ester (500 EW), is tested at the stated application rate against the standard Juvinal (100 EC) at the stated application rates, applied once. The application rate is 2630 l of water/ha.
Evaluation is carried out 36, 51, 62 and 76 days after the treatment by rating the kill on the branches.

Aulacorthum solani = assay: Example 46: head lettuce treated against Aulacorthum solani; conditions: nymphs on plants, g a.i./ha: endosulfan 1120, I-4 48
Method: In four replications, plots of a size of about 33 m^2 with head lettuce of the cultivar “PIC 714” are treated against Aulacorthum solani, Macrosiphum euphorbiae and Myzus persicae. The application is carried out using a tractor sprayer. Here, the active compound Example (I-4) (240 SC), in a tank mix with 0.2% a.i. of rapeseed oil methyl ester (500 EW), is tested against the commercial standard endosulfan (360 EC), at the stated application rates. The application rate is 187 l of water/ha. Two treatments are carried out, at an interval of 22 days.
Evaluation is carried out 8, 22, 30 and 40 days after the first treatment by rating the kill of the nymphs on the plants.

Rhodobium porosum = assay: Example 55: strawberry plants treated against Rhodobium porosum; conditions: nymphs on strawberry plants, g a.i./ha: Calypso 120, I-4 75
Method: In four replications, plots of a size of about 3 m^2 with 3-week-old strawberry plants are treated against Macrosiphum euphorbiae and Rhodobium porosum. The application is carried out using a knapsack sprayer operated with pressurized air. Here, the active compound Example (I-4) (150 OD) and the commercial standard Calypso (480 SC) are tested at the stated application rates. Here, the standard is sprayed as a tank mix with 0.03% of Motto (adjuvant). The application rate is 500 l of water/ha.
Evaluation is carried out 7 and 14 days after the second treatment by rating the kill of the nymphs on the plants.

CCOC(=O)OC1=C(c2cc(C)ccc2C)C(=O)NC12CCC(OC)CC2 (centres unmarked) [Example (I-4)]
Kill (%) 24 d (Saissetia oleae; 24 d after last of two treatments): 53.5%
Kill (%) 44 d (Saissetia oleae; 44 d after last of two treatments): 56.1%
Kill (%) 28 d (Aonidiella aurantii; 28 d after treatment): 92.7%
Kill (%) 59 d (Aonidiella aurantii; 59 d after treatment): 100%
Kill (%) 90 d (Aonidiella aurantii; 90 d after treatment): 100%
Kill (%) 35 d ([1]; 35 d after last of two treatments): 90%
Kill (%) 79 d ([1]; 79 d after last of two treatments): 87%
Kill (%) 16 d (Planococcus spp.; 16 d after second treatment): 94.4%
Kill (%) 38 d (Planococcus spp.; 38 d after second treatment): 91.9%
Kill (%) 5 d (Bemisia argentifolii; 5 d after first of two treatments): 100%
Kill (%) 13 d (Bemisia argentifolii; 13 d after first of two treatments): 100%
Kill (%) 21 d (Bemisia argentifolii; 21 d after first of two treatments): 98.1%
Kill (%) 29 d (Bemisia argentifolii; 29 d after first of two treatments): 90.5%
Kill (%) 36 d (Aleurothrixus floccosus; 36 d after treatment): 81.1%
Kill (%) 51 d (Aleurothrixus floccosus; 51 d after treatment): 81.5%
Kill (%) 62 d (Aleurothrixus floccosus; 62 d after treatment): 92.1%
Kill (%) 76 d (Aleurothrixus floccosus; 76 d after treatment): 92.9%
Kill (%) 8 d (Aulacorthum solani; 8 d after first of two treatments): 100%
Kill (%) 22 d (Aulacorthum solani; 22 d after first of two treatments): 99%
Kill (%) 30 d (Aulacorthum solani; 30 d after first of two treatments): 79%
Kill (%) 40 d (Aulacorthum solani; 40 d after first of two treatments): 87%
Rhodobium porosum Kill (%) 7 d (Rhodobium porosum; 7 d after second treatment): 97%
Rhodobium porosum Kill (%) 14 d (Rhodobium porosum; 14 d after second treatment): 96%
